Measurements reported in patent publication US20020137929A1, “1 - (3-heterocyclylphenyl) isothiourea, -isourea, -guanidine and -amidine herbicidal agents” (Intellectual Property Department, BASF Aktiengesellschaft, priority 1998, published 2002).

Legend:
[1] = system: SAGPY (Arrowhead (Pygmaea)); test: Preemergence weed control under flooded paddy conditions; assay type: in vivo, Sagittaria pygmaea; conditions: rated 3-4 weeks after treatment
In short: (§1)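 Seeds or propagules sown in silt loam kept flooded 1.5-3 cm; compounds in 50/50 acetone/water pipetted into flood water at about 0.0313 to 0.500 kg/ha. Greenhouse; visual 0-9 rating versus untreated control 3-4 weeks after treatment.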

[2] = system: CHEAL (Lambsquarters, Common); test: Postemergence herbicidal evaluation; assay type: in vivo, Chenopodium album
In short: (§2)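 First, seedlings were raised for around two weeks. Next, test material in 50/50 acetone/water containing 0.5% TWEEN 20 was sprayed through a nozzle at 40 psi, equivalent to about 0.0156–0.500 kg/ha. Finally, after 4–5 weeks in the greenhouse, plants were rated 0–9.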

ORYSAT (Rice, Tebonnet) = test: Postemergence herbicidal evaluation; assay type: in vivo, Oryza sativa, (L.) Tebonnet
In short: as §2

CASOB (Sicklepod) [3] = test: Postemergence herbicidal evaluation; assay type: in vivo, Cassia obtusifolia
In short: as §2

GALAP (Galium) [4] = test: Postemergence herbicidal evaluation; assay type: in vivo, Galium aparine
In short: as §2

SETVI (Foxtail, Green) = test: Postemergence herbicidal evaluation; assay type: in vivo, Setaria viridis
In short: as §2

GALAP (Galium) [5] = test: Preemergence herbicidal evaluation; assay type: in vivo, Galium aparine; conditions: rated 4-5 weeks after treatment
In short: (§3)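 Visual 0-9 rating vs control (stand, vigor, malformation, size, chlorosis, overall appearance), scored 4-5 wk after spraying. Seeded soil cups were treated preemergence with compound in aqueous acetone, ~0.0156-0.500 kg/ha equivalent.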

CYPIR (Rice Flatsedge) = test: Preemergence weed control under flooded paddy conditions; assay type: in vivo, Cyperus iria; conditions: rated 3-4 weeks after treatment
In short: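 Ratings on a 0-9 visual scale cover stand, vigor, malformation, size, chlorosis and overall appearance relative to a control, taken three to four weeks post-treatment. Application was into flood water over freshly sown silt loam at roughly 0.0313 to 0.500 kg/ha.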

ECHCG (Barnyardgrass) = test: Postemergence herbicidal evaluation; assay type: in vivo, Echinochloa crus-galli
In short: as §2

AMBEL (Ragweed, Common) = test: Postemergence herbicidal evaluation; assay type: in vivo, Ambrosia artemisifolia
In short: as §2

[6] = system: GLXMAW (Soybean, Williams); test: Postemergence herbicidal evaluation; assay type: in vivo, Glycine max, (L.) Merr. cv Williams
In short: as §2

CYPSE (Flatsedge) [7] = test: Postemergence weed control under flooded paddy conditions; assay type: in vivo, Cyperus serotinus; conditions: postemergence weeds, 3-4 weeks after treatment
In short: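 Herbicidal effect is judged by eye on a 0–9 scale versus control, 3–4 weeks after dosing. Dosing is into flood water kept 1.5–3 cm over the soil, at about 0.0313–0.500 kg/ha in aqueous/acetone 50/50 v/v, on 3–5 cm weeds and 1.5–2.5-leaf rice seedlings.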

CYPSE (Flatsedge) [8] = test: Preemergence weed control under flooded paddy conditions; assay type: in vivo, Cyperus serotinus; conditions: rated 3-4 weeks after treatment
In short: as §1

CASOB (Sicklepod) [9] = test: Preemergence herbicidal evaluation; assay type: in vivo, Cassia obtusifolia; conditions: rated 4-5 weeks after treatment
In short: as §3

ZEAMX (Corn, Field) = test: Preemergence herbicidal evaluation; assay type: in vivo, Zea mays; conditions: rated 4-5 weeks after treatment
In short: as §3

## CCOC(=O)CN1C(=O)C(Cc2ccccc2OC)SC1=Nc1cc(-n2c(=O)cc(C(F)(F)F)n(C)c2=O)c(F)cc1Cl (stereo not shown) [Compound 37, Ethyl 2-{{2-chloro-5-[3,6-dihydro-3-methyl-2,6-dioxo-4-(trifluoromethyl)-1(2H)-pyrimidinyl]-4-fluorophenyl}imino}-5-(o-methoxybenzyl)-4-oxo-3-thiazolidineacetate]
[1]; 0.0313 kg/ha
  Herbicidal rating SAGPY: 0.0
[1]; 0.0625 kg/ha
  Herbicidal rating SAGPY: 0.0
[1]; 0.1250 kg/ha
  Herbicidal rating SAGPY: 0.0
[1]; 0.2500 kg/ha
  Herbicidal rating SAGPY: 3.0
[2]; Rate 0.0158 kg/ha
  Postemergence herbicidal rating CHEAL: 3.0
[2]; Rate 0.0315 kg/ha
  Postemergence herbicidal rating CHEAL: 3.0
[2]; Rate 0.0630 kg/ha
  Postemergence herbicidal rating CHEAL: 3.0
ORYSAT (Rice, Tebonnet); Rate 0.0158 kg/ha
  Postemergence herbicidal rating ORYSAT: 0.5
ORYSAT (Rice, Tebonnet); Rate 0.0315 kg/ha
  Postemergence herbicidal rating ORYSAT: 1.0
ORYSAT (Rice, Tebonnet); Rate 0.0630 kg/ha
  Postemergence herbicidal rating ORYSAT: 1.5
CASOB (Sicklepod) [3]; Rate 0.0158 kg/ha
  Postemergence herbicidal rating CASOB: 0.0
CASOB (Sicklepod) [3]; Rate 0.0315 kg/ha
  Postemergence herbicidal rating CASOB: 0.0
CASOB (Sicklepod) [3]; Rate 0.0630 kg/ha
  Postemergence herbicidal rating CASOB: 0.0
GALAP (Galium) [4]; Rate 0.0158 kg/ha
  Postemergence herbicidal rating GALAP: 1.0
GALAP (Galium) [4]; Rate 0.0315 kg/ha
  Postemergence herbicidal rating GALAP: 3.0
GALAP (Galium) [4]; Rate 0.0630 kg/ha
  Postemergence herbicidal rating GALAP: 4.0
SETVI (Foxtail, Green); Rate 0.0158 kg/ha
  Postemergence herbicidal rating SETVI: 0.0
SETVI (Foxtail, Green); Rate 0.0315 kg/ha
  Postemergence herbicidal rating SETVI: 0.0
SETVI (Foxtail, Green); Rate 0.0630 kg/ha
  Postemergence herbicidal rating SETVI: 0.0
GALAP (Galium) [5]; rate 0.1250 kg/ha
  Preemergence herbicidal rating GALAP: 0.0
GALAP (Galium) [5]; rate 0.2500 kg/ha
  Preemergence herbicidal rating GALAP: 9.0
CYPIR (Rice Flatsedge); 0.0313 kg/ha
  Herbicidal rating CYPIR: 0.0
CYPIR (Rice Flatsedge); 0.0625 kg/ha
  Herbicidal rating CYPIR: 0.0
CYPIR (Rice Flatsedge); 0.1250 kg/ha
  Herbicidal rating CYPIR: 0.0
CYPIR (Rice Flatsedge); 0.2500 kg/ha
  Herbicidal rating CYPIR: 0.0
ECHCG (Barnyardgrass); Rate 0.0158 kg/ha
  Postemergence herbicidal rating ECHCG: 0.0
ECHCG (Barnyardgrass); Rate 0.0315 kg/ha
  Postemergence herbicidal rating ECHCG: 0.0
ECHCG (Barnyardgrass); Rate 0.0630 kg/ha
  Postemergence herbicidal rating ECHCG: 0.0
AMBEL (Ragweed, Common); Rate 0.0158 kg/ha
  Postemergence herbicidal rating AMBEL: 3.0
AMBEL (Ragweed, Common); Rate 0.0315 kg/ha
  Postemergence herbicidal rating AMBEL: 9.0
AMBEL (Ragweed, Common); Rate 0.0630 kg/ha
  Postemergence herbicidal rating AMBEL: 9.0
[6]; Rate 0.0158 kg/ha
  Postemergence herbicidal rating GLXMAW: 4.5
[6]; Rate 0.0315 kg/ha
  Postemergence herbicidal rating GLXMAW: 5.0
[6]; Rate 0.0630 kg/ha
  Postemergence herbicidal rating GLXMAW: 5.0
CYPSE (Flatsedge) [7]; rate 0.0313 kg/ha
  Herbicidal rating CYPSE: 0.0
CYPSE (Flatsedge) [7]; rate 0.0625 kg/ha
  Herbicidal rating CYPSE: 0.0
CYPSE (Flatsedge) [7]; rate 0.1250 kg/ha
  Herbicidal rating CYPSE: 0.0
CYPSE (Flatsedge) [7]; rate 0.2500 kg/ha
  Herbicidal rating CYPSE: 0.0
CYPSE (Flatsedge) [8]; 0.0313 kg/ha
  Herbicidal rating CYPSE: 0.0
CYPSE (Flatsedge) [8]; 0.0625 kg/ha
  Herbicidal rating CYPSE: 0.0
CYPSE (Flatsedge) [8]; 0.1250 kg/ha
  Herbicidal rating CYPSE: 0.0
CYPSE (Flatsedge) [8]; 0.2500 kg/ha
  Herbicidal rating CYPSE: 0.0
CASOB (Sicklepod) [9]; rate 0.1250 kg/ha
  Preemergence herbicidal rating CASOB: 0.0
CASOB (Sicklepod) [9]; rate 0.2500 kg/ha
  Preemergence herbicidal rating CASOB: 0.0
ZEAMX (Corn, Field); rate 0.1250 kg/ha
  Preemergence herbicidal rating ZEAMX: 0.0
ZEAMX (Corn, Field); rate 0.2500 kg/ha
  Preemergence herbicidal rating ZEAMX: 0.0
